Assay results from patent US20230011536A1, “MESENCHYMAL STEM CELL DERIVED EXTRACELLULAR VESICLES LOADED WITH AT LEAST ONE PHOTOSENSITIZER AND USES THEREOF FOR THE TREATMENT OF PERITONEAL CARCINOMATOSIS” (priority 2019, published 2023).

Experiments:
[1] = mTHPC biodistribution after intraperitoneal injection, colorectal peritoneal carcinomatosis model (CT26); assay type: in vivo, mouse; details: for mTHPC level in tumor tissue: 0.5 mg/kg mTHPC, mean±SEM
Method: All animal experiments were performed in agreement with institutional animal use and care after approval by the local Ethics Committee (registration number for the carcinomatosis model experiment: APAFIS-8617). Six-week-old female BALB/c (provided by Charles River, Arbresle, France and weighing 18 g) and C57BL/6 mice were provided with food and water ad libidum, for colon and ovarian model respectively. The animals were allowed to acclimate to the facility for at least one week before being used for experiments. Colorectal model was induced with an intraperitoneal injection of 5·10^4 CT26 cells resuspended in a volume of 200 μL of physiological saline per inoculum. […] Between the days of IP injection and sacrifice, the wellbeing of the mice was checked twice a week through the search of any sign of pain, dehydration, changing in behavior or loss of weight.
Briefly, tumor-bearing animals (with colorectal carcinomatosis) were injected at 0.5 mg/kg mTHPC intraperitoneally. Either at 4 h, 15 h, 24 h or 48 h mice were sacrificed to determine mTHPC accumulation in different organs: tumors, liver, spleen, kidney, intestine, peritoneum, skin and lung. First, organs were weighed and grinded in PBS (1 mL per 10 mg of organ). The amount of 0.8 mL of MeOH per 10 mg of organ was added to the solution and vortexed; then, 0.8 mL of chloroform was added. The solution was centrifuged at 1400 rpm for 10 minutes to allow the separation of the aqueous and chloroform phases. The bottom layer consisting of the chloroform and the solubilized mTHPC was transferred for spectroscopy measurements. Fluorescence emission spectra were obtained by a fluorescence spectrophotometer using 415 nm excitation wavelength.

[2] = test system: colorectal peritoneal carcinomatosis (CT26); test: Survival analysis after PDT in colorectal peritoneal carcinomatosis model; assay type: in vivo, mouse
Method: (§1) After 24 h, animals from both groups were anesthetized with isoflurane, a midline laparotomy was performed to allow invasive laser irradiation, and were then irradiated using a 650 nm laser at a fluence of 10 J/cm^2 (100 mW/cm^2 for 100 s). Two irradiations spots were successively realized to allow an illumination of the entire cavity and drops of saline were used to keep the tissue moist. A heating device was used to keep body temperature stable throughout the treatment until the animal was woken up. The peritoneum and the skin were separately sutured immediately after irradiation.
(§2) Treatment injection was made 12 days after IP inoculation of CT26, followed by invasive illumination 24 hours after. Six groups were performed for each experimentation: (i) no treatment, (ii) laser, (iii) free mTHPC, (iv) EVs-mTHPC, (v) free mTHPC+laser, (vi) EVs-mTHPC+laser.
Another 10 or 11 mice were selected from each group to evaluate the overall survival until 30 days. The end point was defined as mice death or the cachexia with the loss of 20% of the total weight that required the killing of the animal (as mentioned in the registration).

[3] = test system: colorectal peritoneal carcinomatosis (CT26); test: Early effectiveness of PDT in mouse model of colorectal peritoneal carcinomatosis (histology, TUNEL, immunostaining 48 h after illumination); assay type: in vivo
Method: as §1, §2
Early effectiveness was evaluated 48 hours after illumination to compare: tumoral necrosis, apoptosis, macrophages invasion, lymphocyte recruitment, vascular damage and proliferative index result according to treatment. Long-term effectiveness consisted on a survival analysis function of the treatment.
For immunohistochemical detection of the chosen markers for tumor tissue, sections were deparaffined and subject to antigen retrieval methods validated for each of the primary antibodies.
Antibody expression for each analysis was evaluated by the mean number of positive cells in 3 randomly chosen areas (×40 magnification) for 10-15 nodes by treatment. Quantitative analysis of immunostaining preparation was performed using the color segmentation ImageJ plugin developed by the Biomedical Imaging Group at the EPFL, Switzerland.
TUNEL assay: Cell apoptosis in tumour was detected by a FragEL DNA fragmentation (TUNEL) detection kit (Sigma, Roche, ref 11684795910). In brief the cryostat section were permeabilized with 0.1% Triton and 0.1% (citrate de sodium) in 10×PBS. The slides were then labeled with a TdT reaction mixture for 60 min and were mounted with a mounting solution containing 4′, 6-diamidino-2-phenylindole (DAPI). The apoptotic cells (green) and cell nucleus (blue) was examined using a fluorescence microscopy. The percentage of apoptotic cells was assessed in 2 randomly fields at 40× magnification. The apoptotic index was calculated with image J.
For image-based quantitative analysis of blood vessels, immunofluorescence detection of CD31 was made after one hour incubation with antiCD31 antibody (BD 553370,1/50) and 45 min incubation with second antibody (Alexa Fluor® 488, ThermoFisher, A11006, dilution 1/200)

SMILES: Oc1cccc(-c2c3nc(c(-c4cccc(O)c4)c4ccc([nH]4)c(-c4cccc(O)c4)c4nc(c(-c5cccc(O)c5)c5ccc2[nH]5)CC4)C=C3)c1 [mTHPC, 5,10,15,20-Tetrakis(3-hydroxyphenyl)chlorin]
- mTHPC level in tumor tissue ([1]; 4 h after IP injection): 0.10±0.01 ng/mg tissue
- mTHPC level in tumor tissue ([1]; 15 h after IP injection): 0.15±0.04 ng/mg tissue
- mTHPC level in tumor tissue ([1]; 24 h after IP injection): 0.16±0.05 ng/mg tissue
- mTHPC level in tumor tissue ([1]; 48 h after IP injection): 0.10±0.00 ng/mg tissue
- tumor-to-organ ratio, total average ([1]; average over all time points): 2.5
- dead mice 4 days after laser illumination (lethal toxicity) ([2]; +laser, […]): 91%
- histological analysis after PDT (liver, kidney) ([2]; non-vectorized PDT group): hepatic and kidney necrosis
- CD8 detection in tumor ([3]; +laser): 1.88%±0.2
- CD31 expression (fluorescence signal) ([3]; +laser): 0.55·10^7±1.0·10^6
- TUNEL mean fluorescence per mm^2 of tumor (apoptosis) ([3]; +laser): 2.17±0.2
- anti CD3 labeling in tumor (T-lymphocyte infiltration) ([3]; +laser): 2.51%±0.3
- macrophage intra-tumor invasion (anti F4/80) ([3]; +laser): 41.45%±2.2
- mean Ki67-index ([3]; +laser): 26.2%±4.5
- proliferation index reduced by a factor of ([3]; photoactivated (+laser)): 2
- CD8 detection in tumor ([3]; without laser): 0.44%±0.07
- CD31 expression (fluorescence signal) ([3]; without laser): 1.06·10^7±1.4·10^6
- TUNEL mean fluorescence per mm^2 of tumor (apoptosis) ([3]; without laser): 0.86±0.4
- anti CD3 labeling in tumor (T-lymphocyte infiltration) ([3]; without laser): 0.33%±0.07
- macrophage intra-tumor invasion (anti F4/80) ([3]; without laser): 13.19%±1.4
- mean Ki67-index ([3]; without laser): 45.52±3.4%
